Reference: ChEMBL document CHEMBL1201862, “PubChem BioAssay data set” (2004)
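Values below derive from 48-hour exposures of cells grown in 96-well plates, with endpoints linearly interpolated between the two concentrations bracketing the appropriate inhibition level. The concentration for 50% growth inhibition is given as GI50.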 Calls of active or inactive are those of the source. Rule as the data show it: active = GI50 up to about 1.1 µM and inactive = higher.

Legend:
Experiment in all cases: DTP human tumour cell line panel, 48 h
[1] = tested on: NCI-H522
[2] = tested on: SF-539
[3] = tested on: A498
[4] = tested on: SK-MEL-2
[5] = tested on: K562
[6] = tested on: OVCAR-5
[7] = tested on: UACC-257
[8] = tested on: LOX IMVI
[9] = tested on: NCI/ADR-RES
[10] = tested on: SF-268
[11] = tested on: NCI-H23
[12] = tested on: MDA-MB-231
[13] = tested on: HCC 2998
[14] = tested on: DU-145
[15] = tested on: SW-620
[16] = tested on: HOP-92
[17] = tested on: T47D
[18] = tested on: BT-549
[19] = tested on: ACHN
[20] = tested on: UACC-62
[21] = tested on: M14
[22] = tested on: MCF7
[23] = tested on: SF-295
[24] = tested on: MDA-N
[25] = tested on: 786-0
[26] = tested on: SNB-75
[27] = tested on: SN12C
[28] = tested on: HOP-62
[29] = tested on: SR
[30] = tested on: MOLT-4
[31] = tested on: RPMI-8226
[32] = tested on: MDA-MB-435
[33] = tested on: RXF 393
[34] = tested on: HCT-15
[35] = tested on: HCT-116
[36] = tested on: SK-MEL-28
[37] = tested on: SNB-19
[38] = tested on: EKVX
[39] = tested on: CCRF-CEM
[40] = tested on: U-251
[41] = tested on: HT-29
[42] = tested on: UO-31
[43] = tested on: OVCAR-3
[44] = tested on: PC-3
[45] = tested on: NCI-H226
[46] = tested on: SK-MEL-5
[47] = tested on: NCI-H460
[48] = tested on: CAKI-1
[49] = tested on: Malme-3M
[50] = tested on: COLO 205
[51] = tested on: Hs-578T
[52] = tested on: OVCAR-4
[53] = tested on: KM12
[54] = tested on: OVCAR-8
[55] = tested on: TK-10
[56] = tested on: A549
[57] = tested on: IGROV-1

N#C/C(N)=C(\C#N)NC(=O)C(=O)N/C(C#N)=C(\N)C#N
GI50 [1]: > 100 µM (inactive) | GI50 [2]: > 100 µM (inactive) | GI50 [3]: > 100 µM (inactive) | GI50 [4]: > 100 µM (inactive) | GI50 [5]: > 100 µM (inactive) | GI50 [6]: > 100 µM (inactive) | GI50 [7]: > 100 µM (inactive) | GI50 [8]: > 100 µM (inactive) | GI50 [9]: > 100 µM (inactive) | GI50 [10]: > 100 µM (inactive) | GI50 [11]: > 100 µM (inactive) | GI50 [12]: > 100 µM (inactive) | GI50 [13]: > 100 µM (inactive) | GI50 [14]: > 100 µM (inactive) | GI50 [15]: > 100 µM (inactive) | GI50 [16]: > 100 µM (inactive) | GI50 [17]: > 100 µM (inactive) | GI50 [18]: > 100 µM (inactive) | GI50 [19]: > 100 µM (inactive) | GI50 [20]: > 100 µM (inactive) | GI50 [21]: > 100 µM (inactive) | GI50 [22]: > 100 µM (inactive) | GI50 [23]: 57.8 µM (inactive) | GI50 [24]: > 100 µM (inactive) | GI50 [25]: > 100 µM (inactive) | GI50 [26]: 29.3 µM (inactive) | GI50 [27]: > 100 µM (inactive) | GI50 [28]: > 100 µM (inactive) | GI50 [29]: 58.2 µM (inactive) | GI50 [30]: 63.1 µM (inactive) | GI50 [31]: > 100 µM (inactive) | GI50 [32]: > 100 µM (inactive) | GI50 [33]: 9.38 µM (inactive) | GI50 [34]: > 100 µM | GI50 [35]: > 100 µM (inactive) | GI50 [36]: > 100 µM (inactive) | GI50 [37]: > 100 µM (inactive) | GI50 [38]: > 100 µM (inactive) | GI50 [39]: 77.6 µM (inactive) | GI50 [40]: > 100 µM (inactive) | GI50 [41]: > 100 µM (inactive) | GI50 [42]: > 100 µM (inactive) | GI50 [43]: 13 µM (inactive) | GI50 [44]: > 100 µM (inactive) | GI50 [45]: > 100 µM (inactive) | GI50 [46]: > 100 µM (inactive) | GI50 [47]: > 100 µM (inactive) | GI50 [48]: > 100 µM (inactive) | GI50 [49]: 59.6 µM (inactive) | GI50 [50]: > 100 µM (inactive) | GI50 [51]: > 100 µM (inactive) | GI50 [52]: > 100 µM (inactive) | GI50 [53]: > 100 µM (inactive) | GI50 [54]: > 100 µM (inactive) | GI50 [55]: > 100 µM (inactive) | GI50 [56]: > 100 µM (inactive) | GI50 [57]: > 100 µM (inactive)
